The IC50 is the concentration that gives 50% inhibition. Lower therefore signals higher potency.

Sequence of HIF PHD2 (Q9GZT9 whole entry): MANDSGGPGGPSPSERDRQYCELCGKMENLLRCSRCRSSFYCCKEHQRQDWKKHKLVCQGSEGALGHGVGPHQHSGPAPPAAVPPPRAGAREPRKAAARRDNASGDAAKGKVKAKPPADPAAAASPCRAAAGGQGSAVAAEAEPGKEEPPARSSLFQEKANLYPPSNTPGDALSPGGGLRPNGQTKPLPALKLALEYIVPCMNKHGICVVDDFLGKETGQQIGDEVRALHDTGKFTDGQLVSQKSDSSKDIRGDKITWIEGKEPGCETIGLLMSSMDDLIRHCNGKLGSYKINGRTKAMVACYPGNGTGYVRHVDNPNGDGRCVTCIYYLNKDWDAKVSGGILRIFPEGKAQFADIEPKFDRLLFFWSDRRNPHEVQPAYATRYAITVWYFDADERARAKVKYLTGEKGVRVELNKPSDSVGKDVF

This assay concerns the target HIF PHD2 (Homo sapiens, UniProt Q9GZT9). The experiment in a line: PHD2 inhibition assay (TR-FRET, VCB-Eu detection of hydroxylated P564-HIF1α peptide). It counts as biochemical. The conditions noted are these: 2 nM PHD2, 100 nM P564-HIF1α peptide, 0.25 μM 2-oxoglutarate, 100 μM FeCl2, 2 mM ascorbic acid. The essentials: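 Human PHD2 (2 nM final) preincubated 1 h at room temperature with compound and 100 μM FeCl2 in pH 6 MES buffer, 5% DMSO final. Reaction with 100 nM biotinylated P564-HIF1α peptide, 2 mM ascorbate and 0.25 μM 2-oxoglutarate for 1 h, stopped with succinate. Hydroxylation read by TR-FRET (VCB-Eu/streptavidin-APC, 655/615 nm); IC50 from 4-parameter fit of percent of control.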
A general note: TR-FRET usually uses a lanthanide donor and a delayed reading to cut background.
For `O=C(O)CNC(=O)C1=C(O)c2cc(Cl)ccc2C2(CCC(=O)CC2)C1=O` [Example 80, N-((6′-Chloro-4′-hydroxy-2′,4-dioxo-spiro[cyclohexane-1,1′-naphthalen]-3′-yl)carbonyl)glycine], the half-maximal inhibitory concentration (IC50) was < 100 nM.

In the case of `CC1(C)C(=O)C(C(=O)NCC(=O)O)=C(O)c2c(F)cccc21` [Example 81, N-((5-Fluoro-4-hydroxy-1,1-dimethyl-2-oxo-naphthalen-3-yl)carbonyl)glycine], the IC50 was < 100 nM.

`CC1(C)C(=O)C(C(=O)NCC(=O)O)=C(O)c2c(Cl)cccc21` [Example 82, N-((5-Chloro-4-hydroxy-1,1-dimethyl-2-oxo-naphthalen-3-yl)carbonyl)glycine]: the half-inhibitory concentration (IC50) was < 100 nM.

In the case of `O=C(O)CNC(=O)C1=C(O)c2cccc(F)c2C2(CCOCC2)C1=O` [Example 83, N-((8-Fluoro-4-hydroxy-2-oxo-2′,3′,5′,6′-tetrahydro-spiro[naphthalene-1,4′-pyran]-3-yl)carbonyl)glycine], the IC50 is < 100 nM.

For `CC1(C#N)C(=O)C(C(=O)NCC(=O)O)=C(O)c2cc(Cl)ccc21` (stereo not drawn) [Example 84, N-((6-Chloro-1-cyano-4-hydroxy-1-methyl-2-oxo-naphthalen-3-yl)carbonyl)glycine], the IC50 is < 100 nM.

For the compound `C[C@@]1(C#N)C(=O)C(C(=O)NCC(=O)O)=C(O)c2cc(Cl)ccc21` [Example 85, N-(((1R)-6-Chloro-1-cyano-4-hydroxy-1-methyl-2-oxo-naphthalen-3-yl)carbonyl)glycine], the IC50 is < 100 nM.

`C[C@]1(C#N)C(=O)C(C(=O)NCC(=O)O)=C(O)c2cc(Cl)ccc21` [Example 86, N-(((1S)-6-Chloro-1-cyano-4-hydroxy-1-methyl-2-oxo-naphthalen-3-yl)carbonyl)glycine]: the IC50 was < 100 nM.

As to `C[C@@]1(C#N)C(=O)C(C(=O)NCC(=O)O)=C(O)c2ccccc21` [Example 87, N-(((1R)-1-Cyano-4-hydroxy-1-methyl-2-oxo-naphthalen-3-yl)carbonyl)glycine], the half-inhibitory concentration (IC50) was < 100 nM.

In the case of `C[C@]1(C#N)C(=O)C(C(=O)NCC(=O)O)=C(O)c2ccccc21` [Example 88, N-(((1S)-1-Cyano-4-hydroxy-1-methyl-2-oxo-naphthalen-3-yl)carbonyl)glycine], the IC50 is < 100 nM.

Take `CC1(C)C(=O)C(C(=O)NCC(=O)O)=C(O)c2cccc(Cl)c21` [Example 89, N-((8-Chloro-4-hydroxy-1,1-dimethyl-2-oxo-naphthalen-3-yl)carbonyl)glycine]: the half-maximal inhibitory concentration (IC50) is < 100 nM.

`CC1(C)C(=O)C(C(=O)NCC(=O)O)=C(O)c2ccc(Cl)c(F)c21` [Example 90, N-((7-Chloro-8-fluoro-4-hydroxy-1,1-dimethyl-2-oxo-naphthalen-3-yl)carbonyl)glycine]: the IC50 was < 100 nM.

Consider `O=C(O)CNC(=O)C1=C(O)c2cc(Cl)ccc2C2(CCN(C(=O)c3ccccc3)CC2)C1=O` [Example 91, N-((6-Chloro-4-hydroxy-2-oxo-1′-(phenylcarbonyl)-spiro[naphthalene-1,4′-piperidin]-3-yl)carbonyl)glycine], for which the IC50 was < 100 nM.

Turning to `CC1(C)C(=O)C(C(=O)NCC(=O)O)=C(O)c2cc(Cl)c(F)cc21` [Example 92, N-((6-Chloro-7-fluoro-4-hydroxy-1,1-dimethyl-2-oxo-naphthalen-3-yl)carbonyl)glycine], the IC50 is < 100 nM.

Take `O=C(O)CNC(=O)C1=C(O)c2cc(Cl)ccc2C2(CCC2)C1=O` [Example 93, N-((6′-Chloro-4′-hydroxy-2′-oxo-spiro[cyclobutane-1,1′-naphthalen]-3′-yl)carbonyl)glycine]: the IC50 was < 100 nM.

As for `O=C(O)CNC(=O)C1=C(O)c2ccccc2C2(CCOCC2)C1=O` [Example 94, N-((4-hydroxy-2-oxo-2′,3′,5′,6′-tetrahydro-spiro[naphthalene-1,4′-pyran]-3-yl)carbonyl)glycine], the half-maximal inhibitory concentration (IC50) was < 100 nM.

On to `O=C(N[C@@H](CO)C(=O)O)C1=C(O)c2cc(Cl)ccc2C2(CCOCC2)C1=O` [Example 95, N-((6-Chloro-4-hydroxy-2-oxo-2′,3′,5′,6′-tetrahydro-spiro[naphthalene-1,4′-pyran]-3-yl)carbonyl)-L-serine], for which the IC50 fell in the range of 100 to 500 nM.

In the case of `CC1(C)C(=O)C(C(=O)NCC(=O)O)=C(O)c2cc(F)c(Cl)cc21` [Example 96, N-((7-Chloro-6-fluoro-4-hydroxy-1,1-dimethyl-2-oxo-naphthalen-3-yl)carbonyl)glycine], the half-maximal inhibitory concentration (IC50) is < 100 nM.

Regarding `O=C(O)CNC(=O)C1=C(O)c2cc(F)c(Cl)cc2C2(CCOCC2)C1=O` [Example 97, N-((7-Chloro-6-fluoro-4-hydroxy-2-oxo-2′,3′,5′,6′-tetrahydro-spiro[naphthalene-1,4′-pyran]-3-yl)carbonyl)glycine], the IC50 was < 100 nM.

Take `COC/C=C/c1ccc2c(c1)C(C)(C)C(=O)C(C(=O)NCC(=O)O)=C2O` [Example 98, N-((4-Hydroxy-1,1-dimethyl-7-((1E)-3-(methyloxy)-1-propen-1-yl)-2-oxo-naphthalen-3-yl)carbonyl)glycine]: the 50% inhibitory concentration (IC50) was < 100 nM.

Consider `COCCCc1ccc2c(c1)C(C)(C)C(=O)C(C(=O)NCC(=O)O)=C2O` [Example 99, N-((4-Hydroxy-1,1-dimethyl-7-(3-(methyloxy)propyl)-2-oxo-naphthalen-3-yl)carbonyl)glycine], for which the IC50 was < 100 nM.

As for `CNC(=O)C1=C(O)c2cc(Cl)ccc2C(C)(C)C1=O` [Example 100, 6-Chloro-4-hydroxy-N,1,1-trimethyl-2-oxo-naphthalene-3-carboxamide], the IC50 is > 10000 nM.

Consider `CC1(C)C(=O)C(C(N)=O)=C(O)c2cc(Cl)ccc21` [Example 101, 6-Chloro-4-hydroxy-1,1-dimethyl-2-oxo-naphthalene-3-carboxamide], for which the concentration for half-maximal inhibition (IC50) was > 10000 nM.

`C[C@@H](NC(=O)C1=C(O)c2cc(Cl)ccc2C(C)(C)C1=O)C(=O)O` [Example 102, N-((6-chloro-4-hydroxy-1,1-dimethyl-2-oxo-naphthalen-3-yl)carbonyl)-D-alanine]: the IC50 was > 10000 nM.

As to `CC1(C)C(=O)C(C(=O)NCC(=O)O)=C(O)c2cccnc21` [Example 103, 2-(5-Hydroxy-8,8-dimethyl-7-oxo-7,8-dihydroquinoline-6-carboxamido)acetic acid], the 50% inhibitory concentration (IC50) is < 100 nM.

Consider `CC1(C)C(=O)C(C(=O)CCC(=O)O)=C(O)c2cc(Br)ccc21` [Example 104, 4-(7-Bromo-1-hydroxy-4,4-dimethyl-3-oxo-3,4-dihydronaphthalen-2-yl)-4-oxobutanoic acid], for which the IC50 was < 100 nM.

Take `CC1(C)C(=O)C(C(=O)NCC(=O)O)=C(O)c2ccncc21` [Example 105, 2-(5-Hydroxy-8,8-dimethyl-7-oxo-7,8-dihydroisoquinoline-6-carboxamido)acetic acid]: the concentration for half-maximal inhibition (IC50) is < 100 nM.

Consider `CC1(C)C(=O)C(C(=O)NCC(=O)O)=C(O)c2ccc(C(=O)O)cc21` [Example 106, 6-((Carboxymethyl)carbamoyl)-7-hydroxy-8,8-dimethyl-5-oxo-5,8-dihydronaphthalene-2-carboxylic acid], for which the IC50 is < 100 nM.

With `CC1(C)C(=O)C(C(=O)NCC(=O)O)=C(O)c2ccc(NCCN3CCOCC3)cc21` [Example 107, 2-(2-Hydroxy-1,1-dimethyl-7-(2-morpholinoethylamino)-4-oxo-1,4-dihydronaphthalene-3-carboxamido)acetic acid], the IC50 lay within 100 to 500 nM.

On to `CC1(C)C(=O)C(C(=O)NCC(=O)O)=C(O)c2ccc(/C=C/c3ccccc3)cc21` [Example 108, (E)-2-(2-Hydroxy-1,1-dimethyl-4-oxo-7-styryl-1,4-dihydronaphthalene-3-carboxamido)acetic acid], for which the concentration for half-maximal inhibition (IC50) is < 100 nM.

As for `CC1(C)C(=O)C(C(=O)NCC(=O)O)=C(O)c2ccc(CCc3ccccc3)cc21` [Example 109, 2-(2-Hydroxy-1,1-dimethyl-4-oxo-7-phenethyl-1,4-dihydronaphthalene-3-carboxamido)acetic acid], the 50% inhibitory concentration (IC50) was < 100 nM.

`CC1(C)C(=O)C(C(=O)NCC(=O)O)=C(O)c2ccc(C#Cc3ccccc3)cc21` [Example 110, 2-(2-Hydroxy-1,1-dimethyl-4-oxo-7-(2-phenylethynyl)-1,4-dihydronaphthalene-3-carboxamido)acetic acid]: the IC50 was in the range of 100 to 500 nM.

On to `O=C(O)CNC(=O)C1=C(O)c2cccc(Cl)c2C2(CCOCC2)C1=O` [Example 111, N-((8-Chloro-2-hydroxy-4-oxo-2′,3′,5′,6′-tetrahydro-4H-spiro[naphthalene-1,4′-pyran]-3-yl)carbonyl)glycine], for which the IC50 is < 100 nM.

For `O=C(O)CNC(=O)C1=C(O)c2c(Cl)cccc2C2(CCOCC2)C1=O` [Example 112, N-((5-Chloro-2-hydroxy-4-oxo-2′,3′,5′,6′-tetrahydro-4H-spiro[naphthalene-1,4′-pyran]-3-yl)carbonyl)glycine], the concentration for half-maximal inhibition (IC50) is < 100 nM.

Regarding `O=C(O)CNC(=O)C1=C(O)c2ccc(F)c(F)c2C2(CCOCC2)C1=O` [Example 113, N-((7,8-Difluoro-2-hydroxy-4-oxo-2′,3′,5′,6′-tetrahydro-4H-spiro[naphthalene-1,4′-pyran]-3-yl)carbonyl)glycine], the half-maximal inhibitory concentration (IC50) was < 100 nM.

With `CCCCCCCCc1ccc2c(c1)C(C)(C)C(=O)C(C(=O)NCC(=O)O)=C2O` [Example 115, 2-(2-hydroxy-1,1-dimethyl-7-octyl-4-oxo-1,4-dihydronaphthalene-3-carboxamido) acetic acid], the IC50 lay in the range of 1000 to 10000 nM.

`COCC#Cc1ccc2c(c1)C(C)(C)C(=O)C(C(=O)NCC(=O)O)=C2O` [Example 116, 2-(2-hydroxy-7-(3-methoxyprop-1-ynyl)-1,1-dimethyl-4-oxo-1,4-dihydronaphthalene-3-carboxamido) acetic acid]: the IC50 is < 100 nM.
